Data on 20 compounds can be found in patent publication US10105351B2, “Neurofibromatoses therapeutic agents and screening for same” (University of Central Florida Research Foundation, Inc., priority 2012, dated 2018).

The test system of series [1] is merlin-null Schwann cells. The series is described as follows: Orthogonal ATP-based luminescence cell viability assay (CellTiter-GLO). To be noted: 10 uM; average of two assays with one cell line at P18-23.
Series [2] relates to merlin-null Schwann cells. The series is described as follows: Primary assay: live cell protease assay (CellTiter-Fluor), cell viability. To be noted: 10 uM; 8 replicates, 384 well plate; mean and SD of four assays, two independently derived merlin-null Schwann cell lines at P13-23.
Description: Cell viability was measured with the CellTiter-Fluor Live Protease Assay (Promega). […] One way ANOVA Kurskal-Wallis test was used with a Dunn's Multiple Comparison post-test.
(§1) The compounds were tested at 10 uM in 8 replicates in a 384-well format using the live cell protease assay (CellTiter-Fluor) and the orthogonal ATP-based assay (CellTiter-GLO) (both from Promega). We tested the compounds on two Merlin-null Schwann cell lines, L1, (used in the LOPAC screen) at passages ranging from 13-23 and an independently-derived line, L2, tested at passage 20 and 21.
Series [3] concerns normal nf2^flox2/flox2 Schwann cells. The series is described as follows: Selectivity assay: cell viability of normal Schwann cells. As to conditions: 10 uM; one assay with mouse nf2^flox2/flox2 Schwann cells at P2.
Description: as §1

Structures can show the parent of a compound that is named as a salt.

For `CCn1cnc2c(Nc3cccc(Cl)c3)nc(N[C@@H]3CCCC[C@@H]3N)nc21` (relative stereo) [CGP-74514A hydrochloride, N2-(cis-2-Aminocyclohexyl)-N6-(3-chlorophenyl)-9-ethyl-9H-purine-2,6-diamine hydrochloride], the “Orthogonal Assay Average of two, cell viability” value (shortened to “Orthogonal Assay Average of two”) in series [1] was 16.1 % of DMSO Control. Moreover, the “Primary Assay (m +/− sd), cell viability” value in series [2] is 35 +/− 7 % of DMSO Control. For the same compound, the “Selectivity Assay, cell viability” value in series [3] is reported as 33 % of DMSO Control.
With `CC[n+]1c(C=CC=C2N(C)c3ccccc3C2(C)C)sc2ccccc21.[I-]` [AC-93253 iodide, 2-[3-(1,3-Dihydro-1,3,3-trimethyl-2H-indol-2-ylidene)-1-propenyl]-3-ethyl-benzothiazolium iodide], in series [1], the “Orthogonal Assay Average of two” value was 24.3 % of DMSO Control. For the same compound, the “Primary Assay (m +/− sd), cell viability” value in series [2] was 41 +/− 6 % of DMSO Control. Moreover, the “Selectivity Assay, cell viability” value in series [3] is recorded as 28 % of DMSO Control.
As to `O=C1NC(=O)/C(=C/c2ccc3nccnc3c2)S1` [AS605240, 5-(6-Quinoxalinylmethylene)-2,4-thiazolidinedione], in series [1], the “Orthogonal Assay Average of two” value was 40.1 % of DMSO Control. In series [2], the “Primary Assay (m +/− sd), cell viability” value is recorded as 35 +/− 2 % of DMSO Control. Moreover, in series [3], the “Selectivity Assay, cell viability” value is 78 % of DMSO Control.
In the same order, the values of `O=C1Nc2cc(Br)ccc2C1C1Nc2ccccc2C1NO` (centres unmarked) [BIO, (2′Z,3′E)-6-Bromoindirubin-3′-oxime] are 0.8 % of DMSO Control, 20 +/− 8 % of DMSO Control and 31 % of DMSO Control.
With `C[C@@]12C(=O)OC(=O)[C@]1(C)[C@H]1CC[C@@H]2O1` [Cantharidin, cantharidin], the “Orthogonal Assay Average of two” value in series [1] is reported as 35.2 % of DMSO Control. In series [2], the “Primary Assay (m +/− sd), cell viability” value is recorded as 34 +/− 14 % of DMSO Control. The “Selectivity Assay, cell viability” value in series [3] is 78 % of DMSO Control.
Regarding `CC(C)(C)c1ccc(C(=O)CCCN2CCC(OC(c3ccccc3)c3ccccc3)CC2)cc1` [Ebastine, ebastine], in series [1], the “Orthogonal Assay Average of two” value is on record as 0.1 % of DMSO Control. Also, the “Primary Assay (m +/− sd), cell viability” value in series [2] is 17 +/− 3 % of DMSO Control.
With `OCCN1CCN(CCCN2c3ccccc3Sc3ccc(C(F)(F)F)cc32)CC1` [Fluphenazine dihydrochloride], the “Orthogonal Assay Average of two” value in series [1] is 45.6 % of DMSO Control. The “Primary Assay (m +/− sd), cell viability” value in series [2] was 71 +/− 6 % of DMSO Control. In series [3], the “Selectivity Assay, cell viability” value was 43 % of DMSO Control.
Regarding `O=C1Nc2ccc(I)cc2C1=Cc1cc(Br)c(O)c(Br)c1` [GW5074, 3-(3,5-Dibromo-4-hydroxybenzyliden)-5-iodo-1,3-dihydroindol-2-one], in series [1], the “Orthogonal Assay Average of two” value is 36.4 % of DMSO Control. Also, the “Primary Assay (m +/− sd), cell viability” value in series [2] is reported as 24 +/− 7 % of DMSO Control. Moreover, the “Selectivity Assay, cell viability” value in series [3] is given as 31 % of DMSO Control.
For `CC(C)(Sc1ccc(CCN(CCCCC2CCCCC2)C(=O)NC2CCCCC2)cc1)C(=O)O` [GW7647, (2-(4-(2-(1-Cyclohexanebutyl)-3-cyclohexylureido)ethyl)-phenyl-thio)-2-methyl-propionic acid] the same measures were 6.3 % of DMSO Control, 20 +/− 5 % of DMSO Control and 32 % of DMSO Control.
In the same order, the values of `O=C(CCCN1CCC(O)(c2ccc(Cl)cc2)CC1)c1ccc(F)cc1` [Haloperidol] are 88.8 % of DMSO Control, 96 +/− 4 % of DMSO Control and 78 % of DMSO Control.
In the same order, the values of `CC(C)c1ccc2c(c1)c(SC(C)(C)C)c(CC(C)(C)C(=O)O)n2Cc1ccc(Cl)cc1` [L663,536, 3-[3-tert-Butylthio-1-(4-chlorobenzyl)-5-isopropyl-1H-indol-2-yl]-2,2-dimethylpropionic acid, sodium salt hydrate] are 0.1 % of DMSO Control, 16 +/− 3 % of DMSO Control and 31 % of DMSO Control.
For the compound `COc1ccc(Br)cc1S(=O)(=O)NC(=O)/C=C/c1ccccc1Cc1ccc2ccccc2c1` [L-798106, (2E)-N-[(5-bromo-2-methoxyphenyl)sulfonyl]-3-[2-(2-naphthalenylmethyl)phenyl]-2-propenamide], the “Orthogonal Assay Average of two” value in series [1] is on record as 37.6 % of DMSO Control. Besides, in series [2], the “Primary Assay (m +/− sd), cell viability” value is reported as 35 +/− 13 % of DMSO Control. The “Selectivity Assay, cell viability” value in series [3] was 33 % of DMSO Control.
In the same order, the values of `CC[C@H](C)C(=O)O[C@H]1CCC=C2C=C[C@H](C)[C@H](CC[C@@H]3C[C@@H](O)CC(=O)O3)[C@H]21` [Mevastatin, mevastatin] are 85.1 % of DMSO Control, 81 +/− 11 % of DMSO Control and 74 % of DMSO Control.
Regarding `COCC(=O)O[C@]1(CCN(C)CCCc2nc3ccccc3[nH]2)CCc2cc(F)ccc2[C@@H]1C(C)C` [Mibefradil dihydrochloride hydrate, mibefradil], in series [1], the “Orthogonal Assay Average of two” value is given as 53.3 % of DMSO Control. Moreover, the “Primary Assay (m +/− sd), cell viability” value in series [2] is listed as 67 +/− 9 % of DMSO Control. For the same compound, the “Selectivity Assay, cell viability” value in series [3] is reported as 32 % of DMSO Control.
In the same order, the values of `O=C1c2c(O)ccc(O)c2C(=O)c2c(NCCNCCO)ccc(NCCNCCO)c21` [Mitoxantrone dihydrochloride, 1,4-Dihydroxy-5,8-bis[[2-[(2-hydroxyethyl)amino]ethyl]amino]-9,10-anthracenedione] are 36.8 % of DMSO Control, 39 +/− 6 % of DMSO Control and 34 % of DMSO Control.
Consider `CCN(CC)CCCCNc1ncc2cc(-c3c(Cl)cccc3Cl)c(NC(=O)NC(C)(C)C)nc2n1` [PD-161570, 1-tert-Butyl-3-[6-(2,6-dichlorophenyl)-2-[[4-(diethylamino)butyl]amino]pyrido[2,3-d]pyrimidin-7-yl]urea], for which the “Orthogonal Assay Average of two” value in series [1] is listed as 62.4 % of DMSO Control. For the same compound, the “Primary Assay (m +/− sd), cell viability” value in series [2] is 60 +/− 12 % of DMSO Control. In addition, the “Selectivity Assay, cell viability” value in series [3] was 47 % of DMSO Control.
For `O=C(O)c1ccc2ccccc2c1O.OCc1cc(C(O)CNCCCCCCOCCCCc2ccccc2)ccc1O` (centres unmarked) [Salmeterol xinafoate, salmeterol xinafoate] the same measures were 73.7 % of DMSO Control, 57 +/− 9 % of DMSO Control and 57 % of DMSO Control.
With `O=C(CCCN1CCC2(CC1)C(=O)NCN2c1ccccc1)c1ccc(F)cc1` [Spiroperidol], in series [1], the “Orthogonal Assay Average of two” value is recorded as 84.3 % of DMSO Control. Further, in series [2], the “Primary Assay (m +/− sd), cell viability” value is reported as 90 +/− 6 % of DMSO Control. Moreover, in series [3], the “Selectivity Assay, cell viability” value was 85 % of DMSO Control.
Take `CSc1ccc2c(c1)N(CCC1CCCCN1C)c1ccccc1S2` (centres unmarked) [Thioridazine hydrochloride, thioridazine]: the “Orthogonal Assay Average of two” value in series [1] is given as 67.9 % of DMSO Control. Further, the “Primary Assay (m +/− sd), cell viability” value in series [2] is recorded as 71 +/− 13 % of DMSO Control. Besides, the “Selectivity Assay, cell viability” value in series [3] was 33 % of DMSO Control.
For `CN1CCN(CCCN2c3ccccc3Sc3ccc(C(F)(F)F)cc32)CC1` [Trifluoperazine dihydrochloride, trifluoperazine] the same measures were 47 % of DMSO Control, 78 +/− 6 % of DMSO Control and 47 % of DMSO Control.
